Read-outs that look alike come from different tables or passages of the source.
What was measured:
[1] = molecular target: T1, progesterone receptor (PR) (Homo sapiens, UniProt P06401); assay: PR-mediated induction of transcription by R5020 in T47D K5pLuc cells (luciferase reporter and endogenous alkaline phosphatase); type: cell-based; details: for inhibition at 4 µM / inhibition at 8 µM: T47D, R5020 1.0 nM
T1 sequence (P06401 679-933 limits assumed): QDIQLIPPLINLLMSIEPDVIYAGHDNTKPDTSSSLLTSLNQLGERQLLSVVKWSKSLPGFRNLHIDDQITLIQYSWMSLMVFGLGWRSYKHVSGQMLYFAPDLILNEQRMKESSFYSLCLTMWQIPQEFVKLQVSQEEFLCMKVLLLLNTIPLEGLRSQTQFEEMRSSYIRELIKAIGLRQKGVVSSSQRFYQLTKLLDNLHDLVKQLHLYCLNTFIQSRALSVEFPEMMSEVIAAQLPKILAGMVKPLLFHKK
Description: (§1) The engineered T47D breast cancer cell lines employed for the assessment of flavonoid activity on glucocorticoid receptor (GR) and progesterone receptor (PR) signaling permitted the facile quantitation transcription of both an endogenous gene and a stably integrated reporter gene. […] The T47D K5pLuc cell line responds to progestins via induction of a stably integrated cytokeratin 5-luciferase reporter gene. […] For assessment of the effect of the test compounds on androgen receptor (AR) signaling, we used the HeLa13 cell line engineered to stably express human AR and a PSA-luciferase reporter gene containing a 4× multimerized PSA upstream enhancer ARE1 linked to the E4 TATA box and luciferase gene.
Experiments testing the effect of flavonoids on progesterone receptor-mediated transcription employed T47D K5pluc cells. The protocol was the same as that for T47D (A1-2) cells except the medium was Dulbecco’s Modified Eagle’s Medium supplemented with 10% FBS, insulin (10 nM), puromycin 200 ng/mL, nonessential amino acids, penicillin (100 U/mL), and streptomycin (100 μg/mL). When treated with hormone, the synthetic progestin, R5020, was used at 1.0 nM. Hormone treatment was for 20 h at which time cells were harvested for assay of alkaline phosphatase and luciferase.
(§2) For all cell lines, cell harvesting and the luminescence assay for alkaline phosphatase and/or luciferase were performed as previously described in detail. Each condition was performed in quadruplicate. […] Percent inhibition is 100 minus the percent induction.

estrogen receptor (ER) = assay: ER-mediated luciferase reporter induction in T47D KBluc cells; type: cell-based, human; details: relative to 1nM estradiol
Protocol: Experiments testing the effect of flavonoids on estrogen receptor-mediated transcription employed T47D KBluc cells. These cells were maintained in RPMI medium with 10% FBS, penicillin (100 U/mL), and streptomycin (100 μg/mL). For reporter gene experiments, cells were detached as above and replated at 50% confluency in phenol red-free RPMI media with 10% charcoal-stripped FBS and antibiotics (day one). All subsequent steps used phenol red-free medium and trypsin. On day three, the medium was replaced with fresh medium. On day five, cells were washed with PBSE, detached, resuspended, diluted, and replated in the phenol red-free RPMI with charcoal-stripped serum (50,000 cells per well as above).
as §2

[2] = molecular target: T2, glucocorticoid receptor (GR) (Rattus norvegicus, UniProt P06536); assay: GR-mediated induction of transcription by dexamethasone in T47D (A1-2) cells (luciferase reporter and endogenous alkaline phosphatase); type: cell-based, human; details: T47D, dexamethasone 1.0 nM
T2 construct: host or cells: T47D (A1-2)
T2 sequence (P06536 1-795): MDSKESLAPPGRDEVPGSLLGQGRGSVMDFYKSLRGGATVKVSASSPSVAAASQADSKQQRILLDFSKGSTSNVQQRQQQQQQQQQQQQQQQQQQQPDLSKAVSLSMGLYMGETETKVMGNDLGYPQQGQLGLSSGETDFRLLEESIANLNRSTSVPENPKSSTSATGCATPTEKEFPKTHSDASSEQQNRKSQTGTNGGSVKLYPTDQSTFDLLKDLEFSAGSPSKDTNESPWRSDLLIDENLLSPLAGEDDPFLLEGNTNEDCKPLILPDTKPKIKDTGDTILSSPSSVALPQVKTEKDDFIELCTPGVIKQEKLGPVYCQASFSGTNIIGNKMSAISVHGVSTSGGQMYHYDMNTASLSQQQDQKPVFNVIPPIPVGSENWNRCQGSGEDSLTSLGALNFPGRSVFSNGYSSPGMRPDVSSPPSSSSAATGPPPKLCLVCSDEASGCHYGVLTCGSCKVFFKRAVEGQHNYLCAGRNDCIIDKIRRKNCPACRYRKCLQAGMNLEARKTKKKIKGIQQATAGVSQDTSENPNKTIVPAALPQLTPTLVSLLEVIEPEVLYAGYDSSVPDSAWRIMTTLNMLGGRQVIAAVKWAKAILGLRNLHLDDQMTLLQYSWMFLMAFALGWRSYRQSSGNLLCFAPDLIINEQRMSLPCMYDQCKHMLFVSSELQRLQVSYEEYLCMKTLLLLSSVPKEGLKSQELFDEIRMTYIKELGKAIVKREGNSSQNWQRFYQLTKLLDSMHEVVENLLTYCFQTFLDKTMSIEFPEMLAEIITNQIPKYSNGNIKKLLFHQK
Description: as §1
For assessment of the effect of flavones on glucocorticoid receptors, T47D (A1-2) cells were maintained in Minimal Essential Medium, 10% Fetal Bovine Serum (FBS), 0.2 mg/mL G418, penicillin (100 U/mL), and streptomycin (100 μg/mL). For experiments, medium was removed, and cultures rinsed with Phosphate-Buffered Saline (PBS) + 1.0 mM EDTA (PBSE), detached with trypsin, pelleted, and resuspended in medium to a concentration of 500,000 cells/mL. Aliquots of cell suspension, 100 microliters/well, were transferred into a 96-well, white, flat-bottomed plate and allowed to attach for 24 h. The following day, each well was treated with a 50 microliter aliquot of a test compound diluted in medium. Controls received medium containing DMSO diluted in the same way. For hormone treatment, dexamethasone was diluted in medium and added as 50 microliter aliquots so that the final volume in each well was 200 microliters. The final concentration of dexamethasone was 1.0 nM. Controls received medium without hormone. Hormone treatment was for 20 h at which time cells were harvested for assay of alkaline phosphatase and luciferase.
as §2

[3] = read-out: % Inhibition of GR Induction, 4 µM, AP (alkaline phosphatase)
[4] = read-out: % Inhibition of GR Induction, 4 µM, LUC (luciferase)
[5] = read-out: % Inhibition of GR Induction, 8 µM, AP (alkaline phosphatase)
[6] = read-out: % Inhibition of GR Induction, 8 µM, LUC (luciferase)
[7] = 4 µM, AP (alkaline phosphatase), read-out: % Inhibition of GR Induction
[8] = 4 µM, LUC (luciferase), read-out: % Inhibition of GR Induction
[9] = 8 µM, AP (alkaline phosphatase), read-out: % Inhibition of GR Induction
[10] = 8 µM, LUC (luciferase), read-out: % Inhibition of GR Induction

Compound | inhibition at 4 µM ([1]; AP (alkaline phosphatase)) | inhibition at 4 µM ([1]; LUC (luciferase)) | inhibition at 8 µM ([1]; AP (alkaline phosphatase)) | inhibition at 8 µM ([1]; LUC (luciferase)) | inhibition at 4 µM [2, 7] | inhibition at 4 µM [2, 8] | inhibition at 8 µM [2, 9] | inhibition at 8 µM [2, 10] | inhibition of PR-mediated gene expression of both reporter genes ([1]; 4.0 micromolar) | inhibition of PR-mediated gene expression of both reporter genes ([1]; 8.0 micromolar) | IC50 ([1]; R5020, alkaline phosphatase and luciferase, read-out: IC50, inhibition of PR-mediated induction of gene expression) | % ER Induction (estrogen receptor (ER); 1 µM) | % ER Induction (estrogen receptor (ER); 4 µM) | inhibition at 4 µM [2, 3] | inhibition at 4 µM [2, 4] | inhibition at 8 µM [2, 5] | inhibition at 8 µM [2, 6]
O=c1cc(-c2ccc(O)cc2)oc2cc(O)ccc12 [7,4′-dihydroxyflavone] | 41% | -16% | 55% | -49% |  |  |  |  |  |  |  | 86% | 140% | 47% | -92% | 64% | -38%
O=c1cc(-c2ccc(O)cc2)oc2ccccc12 [4′-hydroxyflavone] | 31% | -62% | 49% | -81% | 49% | -43% | 49% | -49% |  |  |  | 12% | 130% |  |  |  | 
COc1ccc([C@@H]2CC(=O)c3c(O)cc(O)cc3O2)cc1O [5,7,3′-triOH, 4′methoxyflavanone] | 8% | -6% | 28% | 16% | 1% |  | 51% | 15% |  |  |  | 10% | 6% |  |  |  | 
O=c1cc(-c2ccc(O)cc2)oc2ccc(O)cc12 [6,4′-dihydroxyflavone] | 39% | -147% | 37% | -103% | 26% | -44% | 39% | -82% |  |  |  | 119% | 192% |  |  |  | 
O=c1cc(-c2ccc(O)c(O)c2)oc2cccc(O)c12 [5,3′,4′-trihydroxyflavone] | 46% | -7% | 65% | 55% |  |  |  |  |  |  |  | 0% | 13% | 27% | -16% | 40% | -24%
O=C1CC(c2ccc(O)c(O)c2)Oc2cc(O)cc(O)c21 (centres unmarked) [5,7,3′,4′-tetrahydroxyflavanone] | 8% | 3% | 40% | 23% |  |  |  |  |  |  |  | 0% | 20% | 4% | 5% | -4% | 18%
O=c1cc(-c2ccc(O)cc2)oc2cccc(O)c12 [5,4′-dihydroxyflavone] | 23% | -12% | 74% | 80% | 34% | 13% | 33% | 13% |  |  |  | 53% | 138% |  |  |  | 
O=c1cc(-c2ccc(O)c(O)c2)oc2cc(O)cc(O)c12 [5,7,3′,4′-tetrahydroxyflavone] | 82% | 76% | 95% | 95% | 33% | -8% | 55% | -3% | at least 70% | ≥ 90% | 1000 to 2000 nM | 3% | 80% |  |  |  | 

The next lines start with results.

inhibition at 4 µM ([1]; AP (alkaline phosphatase)) | inhibition at 4 µM ([1]; LUC (luciferase)) | inhibition at 8 µM ([1]; AP (alkaline phosphatase)) | inhibition at 8 µM ([1]; LUC (luciferase)) | inhibition at 4 µM [2, 7] | inhibition at 4 µM [2, 8] | inhibition at 8 µM [2, 9] | inhibition at 8 µM [2, 10] | inhibition of PR-mediated gene expression of both reporter genes ([1]; 4.0 micromolar) | inhibition of PR-mediated gene expression of both reporter genes ([1]; 8.0 micromolar) | IC50 ([1]; R5020, alkaline phosphatase and luciferase, read-out: IC50, inhibition of PR-mediated induction of gene expression) | Compound | % ER Induction (estrogen receptor (ER); 1 µM) | % ER Induction (estrogen receptor (ER); 4 µM) | inhibition at 4 µM [2, 3] | inhibition at 4 µM [2, 4] | inhibition at 8 µM [2, 5] | inhibition at 8 µM [2, 6]
8% | -64% | 27% | -14% | -15% | -2% | 38% | -6% |  |  |  | O=c1cc(-c2ccc(O)c(O)c2)oc2ccccc12 [3′,4′-dihydroxyflavone] | 0% | 13% |  |  |  | 
78% | 71% | 89% | 90% | 22% | 0% | 38% | -6% | at least 70% | ≥ 90% |  | O=c1cc(-c2ccccc2)oc2cc(O)cc(O)c12 [5,7-dihydroxyflavone] |  |  |  |  |  | 
49% | -96% | 32% |  | 22% | -7% |  |  |  |  |  | O=c1c(-c2ccc(O)cc2)coc2cc(O)cc(O)c12 [5,7,4′-trihydroxyisoflavone] | 125% | 180% |  |  |  | 
10% | -66% | 40% | -107% | 13% | 4% | 34% | -24% |  |  |  | O=c1cc(-c2ccccc2)oc2ccccc12 [flavone] | 1% | 3% |  |  |  | 
